The results in this text go back to publication PMC4893628, “Chalcone-based Selective Inhibitors of a C4 Plant Key Enzyme as Novel Potential Herbicides” (Scientific Reports, 2016).

Like-named read-outs stand apart in the source and are kept apart here.

In assay [1] the test system is Amaranthus retroflexus. In words: In planta growth experiment, A. retroflexus. The note with it: for Influence on plants: shoots sprayed, 3 mM; for dry weight: six days after treatment, both experiments. The format is in vivo. Summed up: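 A. retroflexus seedlings at two-leaf stage, grown at 22/20 °C, 16 h light, sprayed once on shoots with 3 mM compound in 2.4% DMSO, 0.1% Tween; DMSO/Tween control.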

In assay [2] the test system is Corynebacterium glutamicum ATCC13032. In words: Bacterial growth in microscale cultivation, C. glutamicum. The format is cell-based. The following applies: for activity at 0.3 µM / activity at 3 µM / activity at 30 µM / activity at 0.1 µM / activity at 1 µM / activity at 10 µM: Corynebacterium glutamicum. The procedure, abridged:
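Inhibitors in DMSO were added to the medium, at a maximum of 400 μM for trans-chalcone and 100 μM for 2'-hydroxychalcone. Cultures were seeded at OD600 0.5, or 0.25 for B. subtilis, and growth was followed as 620 nm backscatter in a BioLector at 1200 rpm. Final backscatter, growth rate and lag phase were compared with DMSO controls.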

Setting [3] is: complex medium, 0.3 µM, relative to control.
The mark [4] stands for this setting: complex medium, 3 µM, relative to control.
Setting [5] is: complex medium, 30 µM, relative to control.
Setting [6] is: minimal medium, 0.3 µM, relative to control.
[7] abbreviates: minimal medium, 3 µM, relative to control.
Setting [8] is: minimal medium, 30 µM, relative to control.

In the case of `O=C(/C=C/c1ccccc1)c1ccc(O)c(O)c1O` [Compound 10, 2′,3′,4′-Trihydroxychalcone], the Influence on plants result in assay [1] is “Yes”. The dry weight entry in assay [1] is listed as “significantly reduced”. The activity at 0.3 µM in assay [2] (ATCC13032, read-out: Final Backscatter, complex medium, 0.3 µM, relative to control) worked out at 105%; in assay [2] (ATCC13032, read-out: Final Backscatter, minimal medium, 0.3 µM, relative to control), 103%; in assay [2] (ATCC13032, read-out: Growth rate, complex medium, 0.3 µM, relative to control), 106%; in assay [2] (ATCC13032, read-out: Growth rate, minimal medium, 0.3 µM, relative to control) it was 104%. Also, the activity at 3 µM is 109% in assay [2] (ATCC13032, read-out: Final Backscatter, complex medium, 3 µM, relative to control); 104% in assay [2] (ATCC13032, read-out: Final Backscatter, minimal medium, 3 µM, relative to control); 112% in assay [2] (ATCC13032, read-out: Growth rate, complex medium, 3 µM, relative to control); 103% in assay [2] (ATCC13032, read-out: Growth rate, minimal medium, 3 µM, relative to control). The activity at 30 µM is 110% in assay [2] (ATCC13032, read-out: Final Backscatter, complex medium, 30 µM, relative to control); 104% in assay [2] (ATCC13032, read-out: Final Backscatter, minimal medium, 30 µM, relative to control); 118% in assay [2] (ATCC13032, read-out: Growth rate, complex medium, 30 µM, relative to control); 99.3% in assay [2] (ATCC13032, read-out: Growth rate, minimal medium, 30 µM, relative to control). For the same compound, the “Lag Phase” value is given as 100,0% in assay [2] (setting [3]); 97,8% in assay [2] (setting [4]); 94,9% in assay [2] (setting [5]); 97,9% in assay [2] (setting [6]); 98,6% in assay [2] (setting [7]); 102,1% in assay [2] (setting [8]).

For `O=C(/C=C/c1ccc(O)c(O)c1)c1c(O)cc(O)cc1O` [Compound 11, 2′,4′,6′,3,4-Pentahydroxy-chalcone], the Influence on plants entry in assay [1] is recorded as “No”. Moreover, the activity at 0.3 µM in assay [2] (ATCC13032, complex medium, 0.3 µM, relative to control, read-out: Final Backscatter) is 99.6%; in assay [2] (ATCC13032, complex medium, 0.3 µM, relative to control, read-out: Growth rate), 94.6%; in assay [2] (ATCC13032, minimal medium, 0.3 µM, relative to control, read-out: Final Backscatter), 100%; in assay [2] (ATCC13032, minimal medium, 0.3 µM, relative to control, read-out: Growth rate) it was 104%. Besides, the activity at 3 µM came to 103% in assay [2] (ATCC13032, complex medium, 3 µM, relative to control, read-out: Final Backscatter); 104% in assay [2] (ATCC13032, complex medium, 3 µM, relative to control, read-out: Growth rate); 95.1% in assay [2] (ATCC13032, minimal medium, 3 µM, relative to control, read-out: Final Backscatter); 105% in assay [2] (ATCC13032, minimal medium, 3 µM, relative to control, read-out: Growth rate). Besides, the activity at 30 µM was found to be 103% in assay [2] (ATCC13032, complex medium, 30 µM, relative to control, read-out: Final Backscatter); 95.3% in assay [2] (ATCC13032, complex medium, 30 µM, relative to control, read-out: Growth rate); 96.2% in assay [2] (ATCC13032, minimal medium, 30 µM, relative to control, read-out: Final Backscatter); 104% in assay [2] (ATCC13032, minimal medium, 30 µM, relative to control, read-out: Growth rate). The “Lag Phase” value in assay [2] (setting [3]) is given as 97,0%; in assay [2] (setting [4]) it was 97,0%; in assay [2] (setting [5]), 98,5%; in assay [2] (setting [6]) it was 99,3%; in assay [2] (setting [7]), 98,5%; in assay [2] (setting [8]) it was 98,5%.

Take `O=C(/C=C/c1ccc(O)c(O)c1)c1ccc(O)c(O)c1O` [Compound 12, 2′,3′,4′,3,4-Pentahydroxy-chalcone]: the Influence on plants entry in assay [1] is “Yes”. In addition, the dry weight entry in assay [1] was “significantly reduced”. Also, the activity at 0.1 µM in assay [2] (ATCC13032, complex medium, 0.1 µM, relative to control, read-out: Final Backscatter) amounted to 97%; in assay [2] (ATCC13032, complex medium, 0.1 µM, relative to control, read-out: Growth rate), 108%; in assay [2] (ATCC13032, minimal medium, 0.1 µM, relative to control, read-out: Final Backscatter), 99.6%; in assay [2] (ATCC13032, minimal medium, 0.1 µM, relative to control, read-out: Growth rate), 102%. The activity at 1 µM in assay [2] (ATCC13032, complex medium, 1 µM, relative to control, read-out: Final Backscatter) stood at 93.8%; in assay [2] (ATCC13032, complex medium, 1 µM, relative to control, read-out: Growth rate) it was 132%; in assay [2] (ATCC13032, minimal medium, 1 µM, relative to control, read-out: Final Backscatter), 97.6%; in assay [2] (ATCC13032, minimal medium, 1 µM, relative to control, read-out: Growth rate) it was 102%. In addition, the activity at 10 µM was found to be 89.6% in assay [2] (ATCC13032, complex medium, 10 µM, relative to control, read-out: Final Backscatter); 144% in assay [2] (ATCC13032, complex medium, 10 µM, relative to control, read-out: Growth rate); 96.7% in assay [2] (ATCC13032, minimal medium, 10 µM, relative to control, read-out: Final Backscatter); 97.9% in assay [2] (ATCC13032, minimal medium, 10 µM, relative to control, read-out: Growth rate). Besides, the “Lag Phase” value in assay [2] (complex medium, 0.1 µM, relative to control) was 96,4%; in assay [2] (complex medium, 1 µM, relative to control), 84,1%; in assay [2] (complex medium, 10 µM, relative to control), 99,3%; in assay [2] (minimal medium, 0.1 µM, relative to control) it was 99,3%; in assay [2] (minimal medium, 1 µM, relative to control) it was 99,3%; in assay [2] (minimal medium, 10 µM, relative to control) it was 100,7%.
